Values of other authors, collected in patent US20120225789A1, “DNA REPAIR OR BRCA1-LIKE GENE SIGNATURE” (Baylor College of Medicine, priority 2009, published 2012).

Test system: mammary tumors in which BRCA1 protein has been lost
Conditions: mice spontaneously developing BRCA1-lost mammary tumors

| Structure (SMILES) | response of mice to chemotherapy |
| --- | --- |
| COc1cccc2c1C(=O)c1c(O)c3c(c(O)c1C2=O)C[C@@](O)(C(=O)CO)C[C@@H]3O[C@H]1C[C@H](N)[C@H](O)[C@H](C)O1 [doxorubicin] | highly sensitive |
| CC(=O)O[C@@]12CO[C@@H]1C[C@H](O)[C@@]1(C)C(=O)[C@H](O)C3=C(C)[C@@H](OC(=O)[C@H](O)[C@@H](NC(=O)OC(C)(C)C)c4ccccc4)C[C@@](O)([C@@H](OC(=O)c4ccccc4)[C@H]21)C3(C)C [docetaxel] | resistance |
| N.N.[Cl][Pt][Cl] [cisplatin] | highly sensitive |
